We go through 35 compounds from US10196363B2, “Dihydropyrimidin-2-one compounds and medical use thereof” (JAPAN TOBACCO INC., priority 2014, dated 2019).

Where a name gives a salt, the structure may show the parent alone.

For one assay, the target named is T1, human RORγ (Homo sapiens, UniProt P51449).
T1 construct: human RORγ, from Ser253 to Lys518; expressed in transfected cells; host or cells: CHO cells (Chinese hamster ovary), transient co-transfection with pG5-Luc
T1 sequence (P51449 253-518): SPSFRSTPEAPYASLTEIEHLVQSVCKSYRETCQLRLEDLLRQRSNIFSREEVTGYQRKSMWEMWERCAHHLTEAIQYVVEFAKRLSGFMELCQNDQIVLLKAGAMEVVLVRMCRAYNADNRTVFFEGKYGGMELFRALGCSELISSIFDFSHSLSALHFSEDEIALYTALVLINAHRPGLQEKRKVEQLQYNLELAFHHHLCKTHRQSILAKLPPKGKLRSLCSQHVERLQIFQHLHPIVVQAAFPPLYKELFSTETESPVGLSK
Description: In vitro assay of inhibitory effect against RORγ transcriptional activity (GAL4-hRORγ LBD luciferase reporter gene assay in CHO cells). As to conditions: for EC50: GAL4-hRORγ LBD luciferase reporter, CHO cells, read-out: LUC EC50 hRORγ. It counts as cell-based. The method in brief:
(§1)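 Luciferase output, normalised to 0.2% DMSO vehicle (100%), served as the measure of RORγ transcriptional activity. The reporter was driven by GAL4-fused ligand-binding domains of human (residues 253–518) or mouse (251–516) RORγ in transiently transfected CHO cells. Cells received eight-point compound dilutions for 2 days, EC50 values were fitted, and cytotoxic points were dropped.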
For orientation: A reporter such as luciferase makes a cellular process visible.

A further assay addresses T2, mouse RORγ (Mus musculus, UniProt P51450).
T2 construct: mouse RORγ, from Ile251 to Lys516; expressed in transfected cells; host or cells: CHO cells (Chinese hamster ovary), transient co-transfection with pG5-Luc
T2 sequence (P51450 251-516): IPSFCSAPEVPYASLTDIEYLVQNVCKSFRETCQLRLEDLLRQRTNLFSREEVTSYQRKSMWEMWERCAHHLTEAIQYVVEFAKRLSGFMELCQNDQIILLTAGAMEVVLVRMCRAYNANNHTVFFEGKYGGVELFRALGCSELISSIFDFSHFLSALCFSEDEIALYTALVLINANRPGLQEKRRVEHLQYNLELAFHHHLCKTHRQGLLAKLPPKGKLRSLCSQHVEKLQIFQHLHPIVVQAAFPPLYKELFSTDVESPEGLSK
Description: In vitro assay of inhibitory effect against RORγ transcriptional activity (GAL4-mRORγ LBD luciferase reporter gene assay in CHO cells). It counts as cell-based. As to conditions: GAL4-mRORγ LBD luciferase reporter, CHO cells; read-out: LUC EC50 mRORγ. The method in brief: as §1

For orientation: EC50 means the concentration needed to bring the measured effect to its halfway point. For `CC(C)(C)CCc1ccc([C@]2(C)NC(=O)N(CCC(=O)O)C=C2c2ccccc2)cc1Cl` [Example 265], the concentration for a half-maximal effect (EC50) worked out at 37 nM at human RORγ and 71 nM on mouse RORγ.
Taken in the same sequence, the figures for `Cc1cc(N2C=C(C(C)C)[C@](C)(c3ccc(CCC(C)(C)C)c(Cl)c3)NC2=O)ccc1C(=O)O` [Example 266] were 12 nM and 17 nM.
With `CC(C)C1=CN(CCC(=O)O)C(=O)N[C@@]1(C)c1ccc(C=C2CCCCC2)c(Cl)c1` [Example 267], the results for the EC50 on human RORγ and on mouse RORγ were 30 nM and 33 nM, respectively.
The like results for `CC(C)C1=CN(CCC(=O)O)C(=O)N[C@@]1(C)c1ccc(CC2CCCCC2)c(Cl)c1` [Example 268] were, in that order, 15 nM and 14 nM.
Taken in the same sequence, the figures for `CC(C)C1=CN(C23CCC(C(=O)O)(CC2)C3)C(=O)N[C@@]1(C)c1ccc(CCC(C)(C)C)c(Cl)c1` [Example 269] were 19 nM and 23 nM.
Taken in the same sequence, the figures for `CC(C)C1=CN(CCC(=O)O)C(=O)N[C@@]1(C)c1ccc(CCC(C)(C)C)c(C(F)(F)F)c1` [Example 270] were 52 nM and 26 nM.
`CC(C)C1=CN(c2ccc(C(=O)O)cc2)C(=O)N[C@@]1(C)c1ccc(CCC(C)(C)C)c(C(F)(F)F)c1` [Example 271, 4-{(S)-4-[4-(3,3-Dimethyl-butyl)-3-trifluoromethyl-phenyl]-5-isopropyl-4-methyl-2-oxo-3,4-dihydro-2H-pyrimidin-1-yl}-benzoic Acid]: the half-maximal effective concentration (EC50) on human RORγ was 43 nM; at mouse RORγ it was 47 nM.
Regarding `CC(C)C1=CN(C23CCC(C(=O)O)(C2)C3)C(=O)N[C@@]1(C)c1ccc(CCC(C)(C)C)c(Cl)c1` [Example 272], the EC50 amounted to 17 nM at human RORγ and 36 nM at mouse RORγ.
The like results for `COCCN1C=C(c2cccc(C(=O)O)c2)[C@](C)(c2ccc(CCC(C)(C)C)c(Cl)c2)NC1=O` [Example 273] were, in that order, 25 nM and 75 nM.
As for `COCCC1=CN(C23CCC(C(=O)O)(C2)C3)C(=O)N[C@@]1(C)c1ccc(CCC(C)(C)C)c(Cl)c1` [Example 274], the 50% effective concentration (EC50) on human RORγ and on mouse RORγ was 8 nM throughout.
For the compound `COCCN1C=C(c2cncc(C(=O)O)c2)[C@](C)(c2ccc(CCC(C)(C)C)c(Cl)c2)NC1=O` [Example 275], the EC50 on human RORγ turned out to be 542 nM; on mouse RORγ, 1210 nM.
The like results for `CC(C)C1=CN(c2ccc(C(=O)O)cn2)C(=O)N[C@@]1(C)c1ccc(CCC(C)(C)C)c(Cl)c1` [Example 281, 6-{(S)-4-[3-Chloro-4-(3,3-dimethyl-butyl)-phenyl]-5-isopropyl-4-methyl-2-oxo-3,4-dihydro-2H-pyrimidin-1-yl}-nicotinic Acid hydrochloride] were, in that order, 14 nM and 21 nM.
Taken in the same sequence, the figures for `CC(C)C1=CN(CCC(=O)O)C(=O)N[C@@]1(C)c1ccc(CC2CC(F)(F)C2)c(Cl)c1` [Example 282] were 378 nM and 187 nM.
`CC(C)C1=CN(c2ccc(C(=O)O)c(C(F)(F)F)c2)C(=O)N[C@@]1(C)c1ccc(CCC(C)(C)C)c(Cl)c1` [Example 283]: the figures for the half-maximal effective concentration (EC50) at human RORγ and at mouse RORγ were 18 nM and 28 nM, respectively.
In the case of `CC(C)(C)CCc1ccc([C@]2(C)NC(=O)N(CCC(=O)O)C=C2C2CC(C)(C)OC(C)(C)C2)cc1Cl` [Example 284], the 50% effective concentration (EC50) was 2780 nM at human RORγ and 1500 nM at mouse RORγ.
The like results for `CC(C)C1=CN(CCC(=O)O)C(=O)N[C@@]1(C)c1ccc(C=C2CCC(C)(C)CC2)c(Cl)c1` [Example 285] were, in that order, 1350 nM and 30 nM.
The like results for `CC(C)C1=CN(CCC(=O)O)C(=O)N[C@@]1(C)c1ccc(CC2CCC(C)(C)CC2)c(Cl)c1` [Example 286] were, in that order, 270 nM and 38 nM.
In the case of `CC(C)C1=CN(CCC(=O)O)C(=O)N[C@@]1(C)c1ccc(C=C2CCC2)c(Cl)c1` [Example 288], the concentration for a half-maximal effect (EC50) at human RORγ is 1490 nM; at mouse RORγ it was 917 nM.
`CC(C)C1=CN(CCC(=O)O)C(=O)N[C@@]1(C)c1ccc(C=C2CCOCC2)c(Cl)c1` [Example 289]: the results for the concentration for a half-maximal effect (EC50) on human RORγ and on mouse RORγ were 1120 nM and 773 nM, respectively.
The like results for `CC(C)C1=CN(CCC(=O)O)C(=O)N[C@@]1(C)c1ccc(CC2CCOCC2)c(Cl)c1` [Example 290] were, in that order, 463 nM and 259 nM.
On to `CC(C)C1=CN(CCC(=O)O)C(=O)N[C@@]1(C)c1ccc(CC2CCC2)c(Cl)c1` [Example 291], for which the concentration giving a half-maximal response (EC50) at human RORγ came out at 1080 nM; on mouse RORγ it was 138 nM.
The like results for `C=C(C)C1=CN(CCC(=O)O)C(=O)N[C@@]1(C)c1ccc(CCC(C)(C)C)c(Cl)c1` [Example 292] were, in that order, 89 nM and 73 nM.
Taken in the same sequence, the figures for `CC(C)C1=CN(CCC(=O)O)C(=O)N[C@@]1(C)c1ccc(CCC(C)(C)O)c(Cl)c1` [Example 293] were 1100 nM and 1020 nM.
Regarding `CC(C)C1=CN(CCC(=O)O)C(=O)N[C@@]1(C)c1ccc(CCC(C)(C)F)c(Cl)c1` [Example 294], the results for the half-maximal effective concentration (EC50) at human RORγ and at mouse RORγ were 68 nM and 34 nM, respectively.
Regarding `CC(C)C1=CN(c2cc(C(=O)O)on2)C(=O)N[C@@]1(C)c1ccc(CCC(C)(C)C)c(Cl)c1` [Example 295], the results for the concentration giving a half-maximal response (EC50) at human RORγ and at mouse RORγ were 134 nM and 366 nM, respectively.
The like results for `COCCN1C=C(c2cnn(C(C)(C)C(=O)O)c2)[C@](C)(c2ccc(CCC(C)(C)C)c(Cl)c2)NC1=O` [Example 296] were, in that order, 3720 nM and 4530 nM.
`CC(C)C1=CN(c2cc(C(=O)O)nn2C)C(=O)N[C@@]1(C)c1ccc(CCC(C)(C)C)c(Cl)c1` [Example 297]: the values for the 50% effective concentration (EC50) on human RORγ and on mouse RORγ were 44 nM and 61 nM, respectively.
With `CC(C)C1=CN(CCC(=O)O)C(=O)N[C@@]1(C)c1ccc(C2CC(C)(C)C2)c(Cl)c1` [Example 298], the EC50 was determined as 22 nM at human RORγ and 18 nM at mouse RORγ.
Taken in the same sequence, the figures for `CC(C)C1=CN(CCC(=O)O)C(=O)N[C@@]1(C)c1ccc(CCC2(F)CCCC2)c(Cl)c1` [Example 301] were 27 nM and 10 nM.
For the compound `CC(C)C1=CN(CCC(=O)O)C(=O)N[C@@]1(C)c1ccc([C@H]2C[C@@H](C(C)(C)C)C2)c(Cl)c1` [Example 302], the EC50 came to 28 nM at human RORγ and 30 nM at mouse RORγ.
Turning to `CC(C)(C)CCc1ccc([C@]2(C)NC(=O)N(CCC(=O)O)C=C2CCS(C)(=O)=O)cc1Cl` [Example 303], the 50% effective concentration (EC50) turned out to be 1400 nM on human RORγ and 1310 nM at mouse RORγ.
Taken in the same sequence, the figures for `COC(C)CC1=CN(CCC(=O)O)C(=O)N[C@@]1(C)c1ccc([C@H]2C[C@@H](C(C)(C)C)C2)c(Cl)c1` (some centres unmarked) [Example 304] were 21 nM and 19 nM.
As to `CC(C)C1=CN(CCC(=O)O)C(=O)N[C@@]1(C)c1ccc([C@H]2C[C@@H](CC(C)(C)C)C2)c(Cl)c1` [Example 309], the EC50 is more than 3200 nM on human RORγ and 71 nM on mouse RORγ. The “hRORγ luciferase activity, %-of-control” value on human RORγ (value in parentheses beside the EC50 bound, vehicle-control 0.2% DMSO alone = 100%) was “(63%)”.
With `CC(C)(C)CCc1ccc([C@]2(C)NC(=O)N(c3ccc(C(=O)O)cc3)C=C2CCCOC(C)(C)C)cc1Cl` [Example 313], the 50% effective concentration (EC50) is 260 nM on human RORγ and 366 nM on mouse RORγ.
The like results for `CC(C)C1=CN(C23CCC(C(=O)O)(C2)C3)C(=O)N[C@@]1(C)c1ccc(CCC(C)(C)C)c(C(F)(F)F)c1` [Example 314] were, in that order, 38 nM and 32 nM.
